# According to US9580390B2, “Indazole compounds as kinase inhibitors and method of treating cancer with same” (University Health Network, priority 2011, dated 2017):
# Where two headings read alike, the source gives them in different places.
# Columns and labels:
# TICs (Colon 12) = assay: Colon tumor-initiating cell growth inhibition (Alamar Blue); type: cell-based; details: 216 h, 9 days, read-out: Tumor Initiating Cell GI50 Range Colon 12
# [1] = test system: ovarian cancer cells (PA-1); assay: Cancer cell line growth inhibition (SRB assay); type: cell-based; details: read-out: Cancer Cell Line GI50 Range PA-1
# TICs (Ovarian 2393A) = assay: Ovarian tumor-initiating cell growth inhibition (Alamar Blue); type: cell-based; details: 144 h, 6 days, read-out: Tumor Initiating Cell GI50 Range Ovarain 2393A
# [2] = test system: colon cancer cells (HCT116); assay: Cancer cell line growth inhibition (SRB assay); type: cell-based; details: Homo sapiens, HCT-116, read-out: Cancer Cell Line GI50 Range HCT116
# human TTK = target: T1, human TTK (Homo sapiens, UniProt P33981); assay: TTK inhibition assay (indirect ELISA); type: biochemical; details: read-out: TTK IC50 Range
# T1 construct: amino terminal GST fusion of full length human TTK; purchased Invitrogen
# T1 sequence (P33981 1-857): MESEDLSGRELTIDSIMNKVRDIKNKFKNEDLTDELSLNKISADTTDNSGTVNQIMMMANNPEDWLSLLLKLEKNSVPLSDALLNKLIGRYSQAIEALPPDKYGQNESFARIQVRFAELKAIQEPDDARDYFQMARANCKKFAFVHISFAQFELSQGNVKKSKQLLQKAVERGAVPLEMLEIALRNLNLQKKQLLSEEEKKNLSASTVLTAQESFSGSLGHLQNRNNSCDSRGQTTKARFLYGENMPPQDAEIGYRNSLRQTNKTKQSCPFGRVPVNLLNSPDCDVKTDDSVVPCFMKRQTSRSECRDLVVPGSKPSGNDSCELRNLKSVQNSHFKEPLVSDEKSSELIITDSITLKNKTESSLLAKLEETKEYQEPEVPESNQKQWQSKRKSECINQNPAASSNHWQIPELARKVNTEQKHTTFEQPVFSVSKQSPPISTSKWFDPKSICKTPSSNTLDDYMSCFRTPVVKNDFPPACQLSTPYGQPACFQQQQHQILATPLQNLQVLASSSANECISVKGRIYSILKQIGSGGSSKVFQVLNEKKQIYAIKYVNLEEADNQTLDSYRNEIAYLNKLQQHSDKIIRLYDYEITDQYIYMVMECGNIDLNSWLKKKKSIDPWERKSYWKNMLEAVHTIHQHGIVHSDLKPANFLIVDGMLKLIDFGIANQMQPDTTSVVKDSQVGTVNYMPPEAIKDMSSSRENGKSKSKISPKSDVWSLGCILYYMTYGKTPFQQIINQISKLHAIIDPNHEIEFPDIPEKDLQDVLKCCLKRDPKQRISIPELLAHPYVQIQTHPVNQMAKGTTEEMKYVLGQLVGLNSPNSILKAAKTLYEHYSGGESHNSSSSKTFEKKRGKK
# Breast cancer cells = assay: Cancer cell line growth inhibition (SRB assay); type: cell-based; details: Homo sapiens; MDA-MB-468; read-out: Cancer Cell Line GI50 Range MDA-MB-468
# [3] = PA-1 ovarian cancer cells, SRB assay
# [4] = HCT116 colon cancer cells, SRB assay
SMILES,"GI50 (TICs (Colon 12); colon TICs, Alamar Blue)","GI50 [1, 3]","GI50 (TICs (Ovarian 2393A); ovarian TICs, Alamar Blue)","GI50 [2, 4]",GI50 (TICs (Ovarian 2393A); Ovarian 2393A TICs),GI50 (TICs (Colon 12); Colon 12 TICs),"GI50 ([1]; Homo sapiens, PA-1)",GI50 [2],IC50 (human TTK),GI50 (Breast cancer cells)
"O=C(NC(c1ccsc1)C1CC1)c1ccc2[nH]nc(-c3ccc(N4CCOCC4)cc3)c2c1 (stereo not shown) [Example A35, N-(cyclopropyl(thiophen-3-yl)methyl)-3-(4-morpholinophenyl)-1H-indazole-5-carboxamide]",> 500 nM,–,100 to 500 nM,< 100 nM,–,–,–,–,–,–
"CN1[C@@H]2CC[C@H]1C[C@@H](Oc1ccc(-c3n[nH]c4ccc(C(=O)N[C@H](c5ccccn5)C5CC5)cc34)cc1)C2 [Example A213, N-((S)-cyclopropyl(pyridin-2-yl)methyl)-3-(4-(((1R,3R,5S)-8-methyl-8-azabicyclo[3.2.1]octan-3-yl)oxy)phenyl)-1H-indazole-5-carboxamide]",–,–,–,–,< 100 nM,> 500 nM,< 100 nM,< 100 nM,–,–
"CO[C@@H](C(=O)Nc1ccc2[nH]nc(-c3ccc(OC4CCN(C)CC4)cc3)c2c1)c1ccccc1 [Example A27, (R)-2-methoxy-N-(3-(4-((1-methylpiperidin-4-yl)oxy)phenyl)-1H-indazol-5-yl)-2-phenylacetamide]",100 to 500 nM,–,100 to 500 nM,< 100 nM,–,–,–,–,–,–
O=C(Nc1ccc2[nH]nc(-c3ccc(N4CCOCC4)cc3)c2c1)C(c1ccsc1)N1CCCC1 (stereo not shown) [Example A4],< 100 nM,–,100 to 500 nM,< 100 nM,–,–,–,–,–,–
"O=C(N[C@H](c1ncccn1)C1CCCC1)c1ccc2[nH]nc(-c3ccc(N4C5CCC4CC(O)C5)cc3)c2c1 (stereo partly drawn) [Example A367, N-((S)-cyclopentyl(pyrimidin-2-yl)methyl)-3-(4-((1R,3S,5S)-3-hydroxy-8-azabicyclo[3.2.1]octan-8-yl)phenyl)-1H-indazole-5-carboxamide]",–,–,–,–,–,< 100 nM,< 100 nM,< 100 nM,< 100 nM,< 100 nM
"CC(C)[C@H](NC(=O)c1ccc2[nH]nc(-c3ccc(N4CC(N5CCOCC5)C4)cc3)c2c1)c1ccccc1Cl [Example A313, (S)-N-(1-(2-chlorophenyl)-2-methylpropyl)-3-(4-(3-morpholinoazetidin-1-yl)phenyl)-1H-indazole-5-carboxamide]",–,–,–,–,–,< 100 nM,< 100 nM,< 100 nM,< 100 nM,< 100 nM
"O=C(NC(c1ccccc1)C1CC1)c1ccc2[nH]nc(-c3ccc(N4CCOCC4)cc3)c2c1 (stereo not shown) [Example A12, N-(cyclopropyl(phenyl)methyl)-3-(4-morpholinophenyl)-1H-indazole-5-carboxamide]",> 500 nM,–,100 to 500 nM,< 100 nM,–,–,–,–,–,–
"CN1CCC(Oc2ccc(-c3n[nH]c4ccc(C(=O)NC(c5ccsc5)C5CC5)cc34)cc2)CC1 (stereo not shown) [Example A33, N-(cyclopropyl(thiophen-3-yl)methyl)-3-(4-((1-methylpiperidin-4-yl)oxy)phenyl)-1H-indazole-5-carboxamide]",100 to 500 nM,–,100 to 500 nM,< 100 nM,–,–,–,–,–,–
"O=C(NCC1(N2CCOCC2)CCCCC1)c1ccc2[nH]nc(-c3ccc(N4[C@@H]5CC[C@H]4COC5)cc3)c2c1 [Example A501, 3-(4-((1R,5S)-3-oxa-8-azabicyclo[3.2.1]octan-8-yl)phenyl)-N-((1-morpholinocyclohexyl)methyl)-1H-indazole-5-carboxamide]",–,–,–,–,–,< 100 nM,< 100 nM,< 100 nM,< 100 nM,< 100 nM
"O=C(N[C@@H](c1ncccn1)C1CCCC1)c1ccc2[nH]nc(-c3ccc(N4C5CCC4CC(O)C5)cc3)c2c1 (stereo partly drawn) [Example A366, N-((R)-cyclopentyl(pyrimidin-2-yl)methyl)-3-(4-((1R,3R,5S)-3-hydroxy-8-azabicyclo[3.2.1]octan-8-yl)phenyl)-1H-indazole-5-carboxamide]",–,–,–,–,–,< 100 nM,< 100 nM,< 100 nM,< 100 nM,< 100 nM

# Further lines, with some results ahead:
"GI50 (TICs (Colon 12); colon TICs, Alamar Blue)","GI50 [1, 3]","GI50 (TICs (Ovarian 2393A); ovarian TICs, Alamar Blue)","GI50 [2, 4]",GI50 (TICs (Ovarian 2393A); Ovarian 2393A TICs),SMILES,GI50 (TICs (Colon 12); Colon 12 TICs),"GI50 ([1]; Homo sapiens, PA-1)",GI50 [2],IC50 (human TTK),GI50 (Breast cancer cells)
100 to 500 nM,100 to 500 nM,100 to 500 nM,< 100 nM,–,"O=CN1CCC(Oc2ccc(-c3n[nH]c4ccc(C(=O)NC(c5ccccn5)C5CC5)cc34)cc2)CC1 (stereo not shown) [Example A160, N-(cyclopropyl(pyridin-2-yl)methyl)-3-(4-((1-formylpiperidin-4-yl)oxy)phenyl)-1H-indazole-5-carboxamide]",–,–,–,–,–
100 to 500 nM,100 to 500 nM,100 to 500 nM,< 100 nM,–,"CN1CCC(Oc2ccc(-c3n[nH]c4ccc(C(=O)NC(c5ccccn5)C5CC5)cc34)cc2Cl)CC1 (stereo not shown) [Example A198, 3-(3-chloro-4-((1-methylpiperidin-4-yl)oxy)phenyl)-N-(cyclopropyl(pyridin-2-yl)methyl)-1H-indazole-5-carboxamide]",–,–,–,–,–
100 to 500 nM,< 100 nM,100 to 500 nM,< 100 nM,–,"COCCN1CCC(Oc2ccc(-c3n[nH]c4ccc(C(=O)NC(c5ccccc5)C5CC5)cc34)cc2)CC1 (stereo not shown) [Example A98, N-(cyclopropyl(phenyl)methyl)-3-(4-((1-(2-methoxyethyl)piperidin-4-yl)oxy)phenyl)-1H-indazole-5-carboxamide]",–,–,–,–,–
–,–,–,–,< 100 nM,"O=CN1CCC(Oc2ccc(-c3n[nH]c4ccc(C(=O)N[C@H](c5ncccc5Cl)C5CC5)cc34)cc2)CC1 [Example A212, (S)-N-((3-chloropyridin-2-yl)(cyclopropyl)methyl)-3-(4-((1-formylpiperidin-4-yl)oxy)phenyl)-1H-indazole-5-carboxamide]",100 to 500 nM,< 100 nM,< 100 nM,–,–
100 to 500 nM,100 to 500 nM,100 to 500 nM,100 to 500 nM,–,"O=C(NC(c1ccccc1)C1CC1)c1ccc2[nH]nc(-c3ccc(OC4CCN(C5COC5)CC4)cc3)c2c1 (stereo not shown) [Example A157, N-(cyclopropyl(phenyl)methyl)-3-(4-((1-(oxetan-3-yl)piperidin-4-yl)oxy)phenyl)-1H-indazole-5-carboxamide]",–,–,–,–,–
100 to 500 nM,< 100 nM,< 100 nM,< 100 nM,–,"CN1CCC(Oc2ccc(-c3n[nH]c4ccc(NC(=O)C(c5ccsc5)N5CCC5)cc34)cc2)CC1 (stereo not shown) [Example A191, 2-(azetidin-1-yl)-N-(3-(4-((1-methylpiperidin-4-yl)oxy)phenyl)-1H-indazol-5-yl)-2-(thiophen-3-yl)acetamide]",–,–,–,–,–
–,–,–,–,100 to 500 nM,"CN1CCC(Oc2ccc(-c3n[nH]c4ccc(C(=O)NC(c5ccccn5)C5CCC5)cc34)cc2)CC1 (stereo not shown) [Example A210, N-(cyclobutyl(pyridin-2-yl)methyl)-3-(4-((1-methylpiperidin-4-yl)oxy)phenyl)-1H-indazole-5-carboxamide]",100 to 500 nM,< 100 nM,< 100 nM,–,–
> 500 nM,–,100 to 500 nM,< 100 nM,–,"CCc1cccc(CC)c1NC(=O)Nc1ccc2[nH]nc(-c3ccc(OC4CCN(C)CC4)cc3)c2c1 [Example A46, 1-(2,6-diethylphenyl)-3-(3-(4-((1-methylpiperidin-4-yl)oxy)phenyl)-1H-indazol-5-yl)urea]",–,–,–,–,–
100 to 500 nM,–,< 100 nM,< 100 nM,–,"C[C@H]1CCCN1[C@H](C(=O)Nc1ccc2[nH]nc(-c3ccc(OC4CCN(C)CC4)cc3)c2c1)c1ccsc1 [Example A41, (S)-N-(3-(4-((1-methylpiperidin-4-yl)oxy)phenyl)-1H-indazol-5-yl)-2-((S)-2-methylpyrrolidin-1-yl)-2-(thiophen-3-yl)acetamide]",–,–,–,–,–
